Results from patent US7326684B2, “Peptides for enhancing resistance to microbial infections” (priority 2002, dated 2008).
Like-named read-outs stand apart in the source and are kept apart here. *1 amine or outer side, *2 acyl side, *3 side chain or, on linkers, in order; H or OH if unused. Where a SMILES comes first, the peptide text is derived from it. Where no end group is shown, it is not given here. [ ]: non-standard residue; d: D form. Tyr(3-125I) = 3-[125I]iodotyrosine, O=C([C@H](Cc1ccc(O[*:3])c([125I])c1)N[*:1])[*:2]; Tyr(3-I) = N[C@@H](Cc1ccc(O)c(I)c1)C(=O)O

Experiments:
[1] = system: mouse peritoneal macrophages infected with S. typhimurium 415; assay: Combined action of streptomycine and peptide on digestion of S. typhimurium 415 by mouse peritoneal macrophages in vitro; conditions: streptomycine 50 μg/ml alone or 10 μg/ml + peptide 1 nM
[2] = target: non-opioid receptors for β-endorphin on T lymphocytes; format: binding, human
[3] = system: T lymphocytes from the blood of healthy donors; assay: Con A-induced proliferation of T lymphocytes; format: cell-based, human
[4] = target: non-opioid receptors for β-endorphin on T lymphocytes; format: binding, human; conditions: for Ki: read-out: Ki, inhibition of [125I]β-endorphin binding
[5] = target: high-affinity (non-opioid) β-endorphin receptors on murine peritoneal macrophages; conditions: read-out: Ki, inhibition of [125I]β-endorphin binding to non-opioid receptors
[6] = mouse, in vivo
in vivo = conditions: BCA, mouse, ip
[7] = system: mouse peritoneal macrophages infected with S. typhimurium 415; assay: Phagocytosis (digestion) of S. typhimurium 415 by mouse peritoneal macrophages in vitro; conditions: for Time within which phagocytes completely digested the captured microbes: peptide 1 nM; for BCA, bacterial cytocidal activity, percentage of phagocytes destroyed by intracellular bacteria / PA, phagocytic activity, percentage of macrophages participating in phagocytosis / PN, phagocytic number, average number of microbes per macrophage: tuftsin 100 nM, ± SEM
[8] = target: non-opioid (naloxone-insensitive) receptors for β-endorphin on T lymphocytes from normal human blood (human); assay: radioligand saturation binding on human T lymphocytes, Scatchard plot, in the absence of naloxone
[9] = target: non-opioid (naloxone-insensitive) receptors for β-endorphin on T lymphocytes from normal human blood (human); assay: radioligand saturation binding on human T lymphocytes, Scatchard plot, in the presence of naloxone
[10] = target: non-opioid (naloxone-insensitive) receptors for β-endorphin on T lymphocytes from normal human blood (human); assay: displacement of 1 nM [125I]β-endorphin from human T lymphocytes; Ki=IC50/(1+[L]/Kd)
[11] = target: non-opioid (naloxone-insensitive) receptors for β-endorphin on T lymphocytes from normal human blood (human); assay: radioligand saturation binding on human T lymphocytes, Scatchard analysis, one-site model
[12] = target: non-opioid (naloxone-insensitive) receptors for β-endorphin on T lymphocytes from normal human blood (human); assay: radioligand saturation binding on human T lymphocytes, 4 °C, Scatchard analysis
[13] = read-out: Kd of labeled peptide binding to T lymphocytes
[14] = T lymphocytes of healthy donors
[15] = phagocytosis time 1 h, pentarphin, cyclopentarphin 1 nM
[16] = phagocytosis time 2 h, pentarphin, cyclopentarphin 1 nM
[17] = phagocytosis time 4 h, pentarphin, cyclopentarphin 1 nM
[18] = phagocytosis time 7 h, pentarphin, cyclopentarphin 1 nM
[19] = phagocytosis time 12 h, pentarphin 1 nM

## [H]/N=C(/N)N[C@H]1[C@H](O)[C@@H](O)[C@H](O[C@@H]2O[C@@H](C)[C@](O)(C=O)[C@H]2O[C@@H]2O[C@@H](CO)[C@H](O)[C@@H](O)[C@@H]2NC)[C@@H](N/C(N)=N\[H])[C@@H]1O [Streptomycine]
[1]; phagocytosis time 1 h, ± SEM
  BCA, bacterial cytocidal activity: 1.04 ± 0.32%
  PA, phagocytic activity: 86.45 ± 2.13%
  PN, phagocytic number: 8.56 ± 0.76 n
[1]; phagocytosis time 2 h, ± SEM
  BCA, bacterial cytocidal activity: 1.12 ± 0.74%
  PA, phagocytic activity: 96.17 ± 1.76%
  PN, phagocytic number: 2.03 ± 0.46 n
[1]; phagocytosis time 4 h
  BCA, bacterial cytocidal activity: 0%
  PA, phagocytic activity: 0%
  PN, phagocytic number: 0 n

## CC(C)[C@H](N)C(=O)N[C@@H](CCCCN)C(=O)NCC(=O)N[C@@H](Cc1ccccc1)C(=O)N[C@@H](Cc1ccc(O)c(I)c1)C(=O)O [[^125I]-H-VKGFY-OH] (H-VKGF[Tyr(3-I)]-OH)
[2]; [13]
  Kd: 36.3 ± 0.5 nM

## CC(C)C[C@H](NC(=O)[C@H](CS)NC(=O)[C@@H](NC(=O)[C@H](CC(C)C)NC(=O)[C@@H](N)CO)[C@@H](C)O)C(=O)N[C@H](C(=O)N[C@@H](CCCCN)C(=O)NCC(=O)N[C@@H](Cc1ccccc1)C(=O)N[C@@H](Cc1ccc(O)c(I)c1)C(=O)O)C(C)C [[^125I]-immunorphin] (H-SLTCLVKGF[Tyr(3-I)]-OH)
[2]; [13]
  Kd: 7 ± 0.3 nM
[2]; read-out: Kd of labeled peptide binding to T lymphocytes in the presence of naloxone
  Kd: 7.4 ± 0.2 nM

## C=CCN1CC[C@]23c4c5ccc(O)c4O[C@H]2C(=O)CC[C@@]3(O)[C@H]1C5 [naloxone]
[3]; [14]
  Effect on Con A-induced proliferation of T lymphocytes: not active

## H-CLVKGFY-OH [H-CLVKGFY-OH]
[4]
  Ki: 3.4 nM

## H-LTCLVKGFY-OH
[4]
  Ki: 1 nM

## H-LVKGFY-OH [H-LVKGFY-OH]
[4]
  Ki: 8 nM

## H-TCLVKGFY-OH
[4]
  Ki: 2.2 nM

## H-VKGFY-OH [Pentarphin, Val-Lys-Gly-Phe-Tyr]
[4]
  Ki: 15 nM
[5]
  Ki: 12 nM
[2]; [13]
  Kd: 36.3 ± 0.5 nM
[3]
  Effect on Con A-induced proliferation of T lymphocytes: stimulate
  Stimulating effect on T lymphocyte proliferation in presence of naloxone: not inhibited by naloxone
[6]
  Immunogenicity: No immunogenicity
In vivo
  LD50: 2500 mg/kg
[7]
  Time within which phagocytes completely digested the captured microbes: ≤ 12 h
[7]; [15]
  BCA, bacterial cytocidal activity, percentage of phagocytes destroyed by intracellular bacteria: 1.08 ± 0.71%
  PA, phagocytic activity, percentage of macrophages participating in phagocytosis: 84.08 ± 2.12%
  PN, phagocytic number, average number of microbes per macrophage: 7.11 ± 0.15 n
[7]; [16]
  BCA, bacterial cytocidal activity, percentage of phagocytes destroyed by intracellular bacteria: 1.55 ± 0.65%
  PA, phagocytic activity, percentage of macrophages participating in phagocytosis: 89.15 ± 1.78%
  PN, phagocytic number, average number of microbes per macrophage: 9.29 ± 0.74 n
[7]; [17]
  BCA, bacterial cytocidal activity, percentage of phagocytes destroyed by intracellular bacteria: 9.32 ± 1.32%
  PA, phagocytic activity, percentage of macrophages participating in phagocytosis: 66.82 ± 1.14%
  PN, phagocytic number, average number of microbes per macrophage: 6.02 ± 0.66 n
[7]; [18]
  PA, phagocytic activity, percentage of macrophages participating in phagocytosis: 23.31 ± 0.84%
  PN, phagocytic number, average number of microbes per macrophage: 1.03 ± 0.24 n
[7]; [19]
  BCA, bacterial cytocidal activity, percentage of phagocytes destroyed by intracellular bacteria: 2.35 ± 1.21%
  PA, phagocytic activity, percentage of macrophages participating in phagocytosis: 3.73 ± 0.64%
  PN, phagocytic number, average number of microbes per macrophage: 0.66 ± 0.12 n

## SLTCLVKGFY [immunorphin]
[3]; [14]
  Effect on Con A-induced proliferation of T lymphocytes: stimulate

## Thr-Lys-Pro-Arg (TKPR; printed: Thr-Lys-Pro-Arg) [Tuftsin, reference compound]
[7]; [15]
  BCA, bacterial cytocidal activity, percentage of phagocytes destroyed by intracellular bacteria: 1.41 ± 0.27%
  PA, phagocytic activity, percentage of macrophages participating in phagocytosis: 66.07 ± 1.82%
  PN, phagocytic number, average number of microbes per macrophage: 5.84 ± 0.27 n
[7]; [16]
  BCA, bacterial cytocidal activity, percentage of phagocytes destroyed by intracellular bacteria: 8.12 ± 0.99%
  PA, phagocytic activity, percentage of macrophages participating in phagocytosis: 74.11 ± 1.42%
  PN, phagocytic number, average number of microbes per macrophage: 7.31 ± 0.25 n
[7]; [17]
  BCA, bacterial cytocidal activity, percentage of phagocytes destroyed by intracellular bacteria: 29.34 ± 0.75%
  PA, phagocytic activity, percentage of macrophages participating in phagocytosis: 61.97 ± 1.18%
  PN, phagocytic number, average number of microbes per macrophage: 6.29 ± 0.48 n
[7]; [18]
  BCA, bacterial cytocidal activity, percentage of phagocytes destroyed by intracellular bacteria: 31.46 ± 1.23%
  PA, phagocytic activity, percentage of macrophages participating in phagocytosis: 38.48 ± 0.23%
  PN, phagocytic number, average number of microbes per macrophage: 3.32 ± 0.56 n
[7]; [19]
  BCA, bacterial cytocidal activity, percentage of phagocytes destroyed by intracellular bacteria: 7.64 ± 1.38%
  PA, phagocytic activity, percentage of macrophages participating in phagocytosis: 9.31 ± 0.29%
  PN, phagocytic number, average number of microbes per macrophage: 1.36 ± 0.86 n
[7]; tuftsin acted the same way at 100 nM versus 1 nM
  Activity, times lower than pentarphin/cyclopentarphin: 100 times

## [125I]-immunorphin (peptide)
[8]
  Kd: 7 nM
[9]
  Kd: 7.4 nM

## [Met^5]enkephalin [Met-enkephalin, reference compound]
[4]
  Inhibition of β-endorphin binding in displacement assay: not inhibited
[3]
  Effect on Con A-induced proliferation of T lymphocytes: not active

## cyclo(Val-Lys-Gly-Phe-Tyr) (VKGFY; cyclic; printed: Val-Lys-Gly-Phe-Tyr) [Cyclopentarphin]
[7]
  Time within which phagocytes completely digested the captured microbes: ≤ 7 h
[7]; [15]
  BCA, bacterial cytocidal activity, percentage of phagocytes destroyed by intracellular bacteria: 1.25 ± 0.64%
  PA, phagocytic activity, percentage of macrophages participating in phagocytosis: 87.81 ± 3.14%
  PN, phagocytic number, average number of microbes per macrophage: 7.78 ± 0.39 n
[7]; [16]
  BCA, bacterial cytocidal activity, percentage of phagocytes destroyed by intracellular bacteria: 1.06 ± 0.49%
  PN, phagocytic number, average number of microbes per macrophage: 8.81 ± 0.27 n
[7]; [17]
  BCA, bacterial cytocidal activity, percentage of phagocytes destroyed by intracellular bacteria: 2.13 ± 0.60%
  PA, phagocytic activity, percentage of macrophages participating in phagocytosis: 57.43 ± 2.01%
  PN, phagocytic number, average number of microbes per macrophage: 5.32 ± 0.51 n
[7]; [18]
  BCA, bacterial cytocidal activity, percentage of phagocytes destroyed by intracellular bacteria: 2.22 ± 1.31%
  PA, phagocytic activity, percentage of macrophages participating in phagocytosis: 1.74 ± 0.44%
  PN, phagocytic number, average number of microbes per macrophage: 0.27 ± 0.20 n

## immunorphin (H-…-OH) (peptide)
[10]
  Ki: 0.6 nM

## H-LVKGFY-OH [H-LVKGFY-OH]
[10]
  Ki: 8 nM

## H-VKGFY-OH (also: 125I label, residue not given here) [[125I]-H-VKGFY-OH]
[11]
  Kd: 36.3 nM

## H-CLVKGFY-OH [H-CLVKGFY-OH]
[10]
  Ki: 3.4 nM

## H-VKGFY-OH [pentarphin (H-VKGFY-OH)]
[10]
  Ki: 15 nM

## YGGFMTSEKSQTPLVTLFKNAIIKNA[Tyr(3-125I)]KKGE [(3-[125I]iodotyrosyl27)β-endorphin]
[12]
  Kd: 0.25 nM

## H-TCLVKGFY-OH [H-TCLVKGFY-OH]
[10]
  Ki: 2.2 nM

## H-LTCLVKGFY-OH [H-…-OH]
[10]
  Ki: 1 nM
